Common to all, as to assay type: cell-based
In one experiment the test system is E. cl 144200 p99 AmpC. Briefly: Broth microdilution MIC, E. cloacae 144200. The conditions noted are these: Enterobacter cloacae; fixed ceftazidime 4 μg/mL, CAMHB, 16-20 hours 37° C.; read-out: MIC of exemplary compounds in presence of fixed β-lactams, Fixed CAZ, E. cl 144200 p99 AmpC. An excerpt: (§1) To determine the ability of test compounds to potentiate the inhibition of the growth of bacterial strains that produce beta-lactamase enzymes, classic cell based broth microdilution MIC assays were employed. Six bacteria strains producing beta-lactamase enzymes were used: E. coli expressing the Class A Extended Spectrum Beta-Lactamase (ESBL) CTX-M-15, E. cloacae expressing the Class C P99, K. pneumoniae expressing the Class A carbapenemase KPC-2, P. aeruginosa expressing the Class B carbapenemase VIM-2, K. pneumoniae expressing the class A carbapenemase KPC-2 and the class B carbapenemase VIM-4, and S. aureus producing the Class A penicillinase PC-1. The assay was conducted in Cation Adjusted Mueller Hinton Broth (CAMHB, BD #212322, BD Diagnostic Systems, Sparks, Md.). Bacteria strains were grown for 3-5 hours in CAMBH broth. Test compounds were added to a microtiter plate in 2-fold serial dilutions in CAMHB in a final concentration range of 32 μg/mL to 0.25 μg/ml. An overlay of CAMHB containing a Beta-lactam was added to the compounds at a final static concentration of 4 μg/ml. […] In addition to the titration of test compounds the MICs of a panel of control beta-lactams is also tested to ensure the strains are behaving consistently from test to test. Once the test compound and antibiotics are added the plates can be inoculated according to CLSI broth microdilution method. After inoculation the plates are incubated for 16-20 hours at 37° C. then the Minimal Inhibitory Concentration (MIC) of the test compound is determined visually.
(§2) Using the methodology described above in EXAMPLE III, exemplary compounds for Formula I or Formula Ia were evaluated for their ability to inhibit the growth of β-lactamase producing bacteria in the presence of a β-lactam antibiotic.

The next experiment has as its system E. coli ESBL4 CTX-M-15. Put plainly: Broth microdilution MIC, E. coli ESBL4. The conditions noted are these: Escherichia coli, ESBL4CTXM15; fixed ceftazidime 4 μg/mL, CAMHB, 16-20 hours 37° C.; read-out: MIC of exemplary compounds in presence of fixed β-lactams, Fixed CAZ, E. coli ESBL4 CTX-M-15.
Description: as §1, §2
For orientation: Dilution methods test growth across graded concentrations, often in twofold steps.

In the next experiment the test system is P. aerug. Ps296 VIM-2. Put plainly: Broth microdilution MIC, P. aeruginosa Ps296. The note with it: Pseudomonas aeruginosa; fixed meropenem 4 μg/mL, CAMHB, 16-20 hours 37° C.; read-out: MIC of exemplary compounds in presence of fixed β-lactams, Fixed Mero, P. aerug. Ps296 VIM-2.
Description: as §1, §2

Another experiment concerns K.P. A-1797 KPC-2 VIM-4. Briefly: Broth microdilution MIC, K. pneumoniae A-1797. The note with it: Klebsiella pneumoniae; fixed meropenem 4 μg/mL, CAMHB, 16-20 hours 37° C.; read-out: MIC of exemplary compounds in presence of fixed β-lactams, Fixed Mero, K.P. A-1797 KPC-2 VIM-4.
Description: as §1, §2

The subject of the next experiment is S. aureus MSSA-7 PC-1. Put plainly: Broth microdilution MIC, S. aureus MSSA-7. The conditions noted are these: Staphylococcus aureus, fixed piperacillin 4 μg/mL, CAMHB, 16-20 hours 37° C., read-out: MIC of exemplary compounds in presence of fixed β-lactams, Fixed Pip, S. aureus MSSA-7 PC-1.
Description: as §1, §2

For another experiment, the system named is K.P. 156319 KPC-3. Briefly: Broth microdilution MIC, K. pneumoniae 156319. The conditions noted are these: Klebsiella pneumoniae; fixed meropenem 4 μg/mL, CAMHB, 16-20 hours 37° C.; read-out: MIC of exemplary compounds in presence of fixed β-lactams, Fixed Mero, K.P. 156319 KPC-3.

Where only a bound is given, the exact number is not on record here.

The term MIC denotes the lowest concentration found to suppress growth.

On to `N[C@H]1CC[C@@H](CC(=O)N[C@H]2Cc3cccc(C(=O)O)c3OB2O)CC1` [Example 7, (R)-3-(2-(cis-4-aminocyclohexyl)acetamido)-2-hydroxy-3,4-dihydro-2H-benzo[e][1,2]oxaborinine-8-carboxylic acid], for which the MIC with E. cl 144200 p99 AmpC was below 4 µg/mL; with E. coli ESBL4 CTX-M-15, below 4 µg/mL; in the experiment with P. aerug. Ps296 VIM-2, above 32 µg/mL; with K.P. A-1797 KPC-2 VIM-4, above 32 µg/mL; in the experiment on S. aureus MSSA-7 PC-1 it was 8 to 32 µg/mL; with K.P. 156319 KPC-3 it was below 4 µg/mL.
For `CN(C)C[C@H]1CC[C@H](CC(=O)N(C)[C@H]2Cc3cccc(C(=O)O)c3OB2O)CC1` [Example 8, (R)-3-(2-(trans-4-((dimethylamino)methyl)cyclohexyl)-N-methylacetamido)-2-hydroxy-3,4-dihydro-2H-benzo[e][1,2]oxaborinine-8-carboxylic acid], the MIC in the experiment with E. cl 144200 p99 AmpC is below 4 µg/mL; in the experiment with E. coli ESBL4 CTX-M-15, below 4 µg/mL; with P. aerug. Ps296 VIM-2 it was 8 to 32 µg/mL; with K.P. A-1797 KPC-2 VIM-4 it was above 32 µg/mL; in the experiment with S. aureus MSSA-7 PC-1, below 4 µg/mL; in the experiment with K.P. 156319 KPC-3 it was 8 to 32 µg/mL.
For the compound `N=C(N)N[C@H]1CC[C@H](CC(=O)N[C@H]2Cc3cccc(C(=O)O)c3OB2O)CC1` [Example 9, (R)-3-(2-(trans-4-guanidinocyclohexyl)acetamido)-2-hydroxy-3,4-dihydro-2H-benzo[e][1,2]oxaborinine-8-carboxylic acid], the MIC is below 4 µg/mL with E. cl 144200 p99 AmpC; below 4 µg/mL in the experiment with E. coli ESBL4 CTX-M-15; 8 to 32 µg/mL with P. aerug. Ps296 VIM-2; 8 to 32 µg/mL with K.P. A-1797 KPC-2 VIM-4; below 4 µg/mL with S. aureus MSSA-7 PC-1; below 4 µg/mL in the experiment on K.P. 156319 KPC-3.
In the case of `NCCNC[C@H]1CC[C@H](CC(=O)N[C@H]2Cc3cccc(C(=O)O)c3OB2O)CC1` [Example 10, (R)-3-(2-(trans-4-((2-aminoethylamino)methyl)cyclohexyl)acetamido)-2-hydroxy-3,4-dihydro-2H-benzo[e][1,2]oxaborinine-8-carboxylic acid], the MIC in the experiment with E. cl 144200 p99 AmpC is below 4 µg/mL; with E. coli ESBL4 CTX-M-15, below 4 µg/mL; in the experiment on P. aerug. Ps296 VIM-2 it was 8 to 32 µg/mL; in the experiment on K.P. A-1797 KPC-2 VIM-4, below 4 µg/mL; in the experiment with S. aureus MSSA-7 PC-1 it was below 4 µg/mL; with K.P. 156319 KPC-3 it was below 4 µg/mL.
For `NC[C@H](N)C(=O)N[C@H]1CC[C@H](CC(=O)N[C@H]2Cc3cccc(C(=O)O)c3OB2O)CC1` [Example 13, (R)-3-(2-(trans-4-((S)-2,3-diaminopropanamido)cyclohexyl)acetamido)-2-hydroxy-3,4-dihydro-2H-benzo[e][1,2]oxaborinine-8-carboxylic acid], the MIC is below 4 µg/mL in the experiment on E. cl 144200 p99 AmpC; below 4 µg/mL with E. coli ESBL4 CTX-M-15; below 4 µg/mL with P. aerug. Ps296 VIM-2; 8 to 32 µg/mL with K.P. A-1797 KPC-2 VIM-4; below 4 µg/mL in the experiment on S. aureus MSSA-7 PC-1; 8 to 32 µg/mL with K.P. 156319 KPC-3.
As for `CN(C)[C@H]1CC[C@H](CC(=O)N[C@H]2Cc3cccc(C(=O)O)c3OB2O)CC1` [Example 14, (R)-3-(2-(trans-4-(dimethylamino)cyclohexyl)acetamido)-2-hydroxy-3,4-dihydro-2H-benzo[e][1,2]oxaborinine-8-carboxylic acid], the MIC in the experiment with E. cl 144200 p99 AmpC is below 4 µg/mL; in the experiment with E. coli ESBL4 CTX-M-15 it was below 4 µg/mL; with P. aerug. Ps296 VIM-2, above 32 µg/mL; in the experiment with K.P. A-1797 KPC-2 VIM-4, 8 to 32 µg/mL; in the experiment with S. aureus MSSA-7 PC-1, below 4 µg/mL; in the experiment on K.P. 156319 KPC-3, below 4 µg/mL.
Turning to `NCCN[C@H]1CC[C@H](CC(=O)N[C@H]2Cc3cccc(C(=O)O)c3OB2O)CC1` [Example 15, (R)-3-(2-(trans-4-(2-aminoethylamino)cyclohexyl)acetamido)-2-hydroxy-3,4-dihydro-2H-benzo[e][1,2]oxaborinine-8-carboxylic acid], the MIC in the experiment with E. cl 144200 p99 AmpC, in the experiment with E. coli ESBL4 CTX-M-15, in the experiment on P. aerug. Ps296 VIM-2, in the experiment on K.P. A-1797 KPC-2 VIM-4, with S. aureus MSSA-7 PC-1 and in the experiment with K.P. 156319 KPC-3 was below 4 µg/mL each time.
Take `O=C(C[C@H]1CC[C@H](N2CCNCC2)CC1)N[C@H]1Cc2cccc(C(=O)O)c2OB1O` [Example 16, (R)-2-hydroxy-3-(2-(trans-4-(piperazin-1-yl)cyclohexyl)acetamido)-3,4-dihydro-2H-benzo[e][1,2]oxaborinine-8-carboxylic acid]: the MIC with E. cl 144200 p99 AmpC was below 4 µg/mL; in the experiment with E. coli ESBL4 CTX-M-15 it was below 4 µg/mL; with P. aerug. Ps296 VIM-2 it was 8 to 32 µg/mL; in the experiment on K.P. A-1797 KPC-2 VIM-4 it was above 32 µg/mL; with S. aureus MSSA-7 PC-1, below 4 µg/mL; in the experiment with K.P. 156319 KPC-3, below 4 µg/mL.
For `O=C(C[C@H]1CC[C@@H](N2CCNCC2)CC1)N[C@H]1Cc2cccc(C(=O)O)c2OB1O` [Example 17, (R)-2-hydroxy-3-(2-(cis-4-(piperazin-1-yl)cyclohexyl)acetamido)-3,4-dihydro-2H-benzo[e][1,2]oxaborinine-8-carboxylic acid], the MIC in the experiment on E. cl 144200 p99 AmpC was below 4 µg/mL; with E. coli ESBL4 CTX-M-15, below 4 µg/mL; in the experiment on P. aerug. Ps296 VIM-2, above 32 µg/mL; in the experiment with K.P. A-1797 KPC-2 VIM-4 it was above 32 µg/mL; in the experiment on S. aureus MSSA-7 PC-1, below 4 µg/mL; with K.P. 156319 KPC-3, below 4 µg/mL.
Take `N[C@H]1CC[C@H](CCC(=O)N[C@H]2Cc3cccc(C(=O)O)c3OB2O)CC1` [Example 21, (R)-3-(3-(trans-4-aminocyclohexyl)propanamido)-2-hydroxy-3,4-dihydro-2H-benzo[e][1,2]oxaborinine-8-carboxylic acid]: the minimal inhibitory concentration (MIC) in the experiment on E. cl 144200 p99 AmpC is below 4 µg/mL; in the experiment on E. coli ESBL4 CTX-M-15 it was below 4 µg/mL; with P. aerug. Ps296 VIM-2, 8 to 32 µg/mL; in the experiment with K.P. A-1797 KPC-2 VIM-4, above 32 µg/mL; in the experiment on S. aureus MSSA-7 PC-1 it was below 4 µg/mL; with K.P. 156319 KPC-3 it was below 4 µg/mL.
For the compound `N=C(N)N[C@H]1CC[C@H](CCC(=O)N[C@H]2Cc3cccc(C(=O)O)c3OB2O)CC1` [Example 22, (R)-3-(3-(trans-4-guanidinocyclohexyl)propanamido)-2-hydroxy-3,4-dihydro-2H-benzo[e][1,2]oxaborinine-8-carboxylic acid], the MIC in the experiment with E. cl 144200 p99 AmpC is below 4 µg/mL; with E. coli ESBL4 CTX-M-15, below 4 µg/mL; with P. aerug. Ps296 VIM-2, 8 to 32 µg/mL; in the experiment with K.P. A-1797 KPC-2 VIM-4 it was below 4 µg/mL; with S. aureus MSSA-7 PC-1 it was below 4 µg/mL; with K.P. 156319 KPC-3 it was below 4 µg/mL.
Take `CN(C)CCN(C)[C@H]1CC[C@H](CC(=O)N[C@H]2Cc3cccc(C(=O)O)c3OB2O)CC1` [Example 23, (R)-3-(2-(trans-4-((2-(dimethylamino)ethyl)(methyl)amino)cyclohexyl)acetamido)-2-hydroxy-3,4-dihydro-2H-benzo[e][1,2]oxaborinine-8-carboxylic acid]: the MIC is below 4 µg/mL in the experiment with E. cl 144200 p99 AmpC; below 4 µg/mL with E. coli ESBL4 CTX-M-15; above 32 µg/mL with P. aerug. Ps296 VIM-2; above 32 µg/mL with K.P. A-1797 KPC-2 VIM-4; below 4 µg/mL in the experiment with S. aureus MSSA-7 PC-1; below 4 µg/mL in the experiment with K.P. 156319 KPC-3.
As for `N=C(N)NCCN[C@H]1CC[C@H](CC(=O)N[C@H]2Cc3cccc(C(=O)O)c3OB2O)CC1` [Example 25, (R)-3-(2-(trans-4-(2-guanidinoethylamino)cyclohexyl)acetamido)-2-hydroxy-3,4-dihydro-2H-benzo[e][1,2]oxaborinine-8-carboxylic acid], the MIC in the experiment on E. cl 144200 p99 AmpC, with E. coli ESBL4 CTX-M-15, with P. aerug. Ps296 VIM-2, with K.P. A-1797 KPC-2 VIM-4, with S. aureus MSSA-7 PC-1 and with K.P. 156319 KPC-3 was below 4 µg/mL throughout.
Consider `O=C(C[C@H]1CC[C@H](NCCO)CC1)N[C@H]1Cc2cccc(C(=O)O)c2OB1O` [Example 26, (R)-2-hydroxy-3-(2-(trans-4-(2-hydroxyethylamino)cyclohexyl)acetamido)-3,4-dihydro-2H-benzo[e][1,2]oxaborinine-8-carboxylic acid], for which the MIC in the experiment with E. cl 144200 p99 AmpC, with E. coli ESBL4 CTX-M-15, in the experiment with P. aerug. Ps296 VIM-2, in the experiment with K.P. A-1797 KPC-2 VIM-4, with S. aureus MSSA-7 PC-1 and in the experiment on K.P. 156319 KPC-3 was below 4 µg/mL throughout.

These data come from patent publication US10669290B2, “Beta-lactamase inhibitors” (priority 2012, dated 2020).
